Results reported in EPA's ToxValDB 9.5 (doi:10.2903/j.efsa.2012.2879).
Values after ≈ are worked out from the molar mass of the structure shown.

Legend:
Colinus virginianus = conditions: acute, oral, mortality
Daphnia magna = conditions: chronic/long-term; duration: 21 days; reproduction
Apis mellifera = conditions: acute; duration: 48 hours; dermal; mortality

Structure (SMILES): Cc1cc(C)c(C2=C(OC(=O)CC(C)(C)C)C3(CCCC3)OC2=O)c(C)c1 [Spiromesifen]
- NOEC (Anas platyrhynchos; reproductive, reproduction): 229 mg/kg
- LC50 (Anas platyrhynchos; short-term, oral, feed, mortality): > 5000 mg/kg
- NOAEL (Mus musculus; chronic, duration: 18 months): 3 mg/kg-day
- NOAEL (Mus musculus; subchronic, duration: 90 days, oral, clinical chemistry): 3 mg/kg-day
- LC50 (Colinus virginianus; diet): > 5000 mg/kg
- LD50 (Colinus virginianus): > 2000 mg/kg
- NOAEL (Rattus norvegicus; acute, neurology): 2000 mg/kg-day
- LD50 (Rattus norvegicus; acute, oral, mortality): > 2500 mg/kg
- NOEC (Rattus norvegicus; reproduction developmental, reproduction): 30 mg/kg-day
- NOEC (Daphnia magna): 0.00025 mg/L
- LC50 (Tagia sp.; acute, duration: 14 days, mortality): > 1000 mg/kg
- NOEC (Tagia sp.; chronic/long-term, duration: 56 days, reproduction): 4.32 mg/kg
- LC50 (Oncorhynchus mykiss; acute, duration: 96 hours, mortality): 0.016 µg/mL (≈ 0.0432 µM)
- NOEC (Oncorhynchus mykiss; chronic/long-term, duration: 97 days): 0.00473 mg/L
- LD50 (Apis mellifera): > 200 µg/piece
